Source: ChEMBL document CHEMBL4130472, “Synthesis of naphthazarin derivatives and identification of novel thioredoxin reductase inhibitor as potential anticancer agent” (Eur J Med Chem, 2017)
Positions count from the first letter of the chain named. Active and inactive are the calls of the source. No cut-off for these calls is given here.

How the values were obtained:
HL-60 [1] = assay: Cytotoxicity in human HL60 cells assessed as cell viability at 20 uM incubated for 48 hrs by MTT assay; assay type: functional; conditions: HL-60, 48 h, read-out: Activity
[2] = biological target: T1, Thioredoxin reductase 1, cytoplasmic (Homo sapiens) (UniProt Q16881); assay: Inhibition of TrxR1 in human HL60 cells incubated for 12 hrs by TRFS-green dye based fluorescence assay; assay type: cell-based
T1 sequence (whole entry): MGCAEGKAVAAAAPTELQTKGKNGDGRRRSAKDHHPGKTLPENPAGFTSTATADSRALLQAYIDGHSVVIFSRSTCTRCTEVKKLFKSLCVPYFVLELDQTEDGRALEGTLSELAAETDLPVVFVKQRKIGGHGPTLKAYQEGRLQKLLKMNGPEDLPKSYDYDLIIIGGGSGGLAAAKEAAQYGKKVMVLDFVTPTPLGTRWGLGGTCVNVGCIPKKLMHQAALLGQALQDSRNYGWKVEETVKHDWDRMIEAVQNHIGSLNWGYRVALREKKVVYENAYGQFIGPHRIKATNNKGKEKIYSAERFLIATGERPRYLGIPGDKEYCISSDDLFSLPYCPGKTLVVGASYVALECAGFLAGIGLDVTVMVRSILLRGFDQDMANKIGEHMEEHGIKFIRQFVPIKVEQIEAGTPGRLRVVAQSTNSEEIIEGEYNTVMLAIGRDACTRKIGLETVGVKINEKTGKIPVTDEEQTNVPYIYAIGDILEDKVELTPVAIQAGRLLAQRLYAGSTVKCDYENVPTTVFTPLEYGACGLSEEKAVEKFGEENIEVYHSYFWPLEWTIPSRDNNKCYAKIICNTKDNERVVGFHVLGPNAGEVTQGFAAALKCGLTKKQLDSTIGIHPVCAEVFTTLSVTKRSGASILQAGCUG

HL-60 [3] = assay: Induction of apoptosis in human HL60 cells assessed as increase in condensed and fluorescent nuclei at 1 to 5 uM incubated for 24 hrs by Hoechst 33342 staining based phase contrast and fluorescence microscopy; assay type: functional, cell-based
HL-60 [4] = assay: Cytotoxicity in human HL60 cells assessed as cell viability at 1 to 5 uM incubated for 24 hrs after pre-treatment with […] before compound addition by MTT assay; assay type: functional, cell-based
HL-60 [5] = assay: Cytotoxicity in human HL60 cells assessed as cell viability at 1 to 5 uM incubated for 24 hrs by MTT assay; assay type: functional, cell-based
HL-60 [6] = assay: Induction of necrosis in human HL60 cells 5 uM incubated for 24 hrs by Annexin V/propidium iodide staining based flow cytometry; assay type: functional, cell-based
HEK-293T [7] = assay: Cytotoxicity in human HEK293T cells assessed as reduction in cell viability at 1 to 5 uM incubated for 48 hrs by MTT assay; assay type: cell-based
HEK-293T [8] = assay: Cytotoxicity in HEK293T cells transfected with pIRESneo construct assessed as reduction in cell viability at 1 to 5 uM incubated for 48 hrs by MTT assay; assay type: functional, cell-based; conditions: Homo sapiens
HEK-293T [9] = assay: Cytotoxicity in HEK293T cells overexpressing TrxR1 (unknown origin) cells assessed as reduction in cell viability at 1 to 5 uM incubated for 48 hrs by MTT assay; assay type: functional, cell-based; conditions: Homo sapiens
[10] = biological target: T2, Glutathione reductase (Rattus norvegicus) (UniProt P70619); assay: Inhibition of NADPH-reduced rat glutathione reductase at 1 to 5 uM incubated for 1 hr in presence of NADPH and GSSG
T2 sequence (whole entry): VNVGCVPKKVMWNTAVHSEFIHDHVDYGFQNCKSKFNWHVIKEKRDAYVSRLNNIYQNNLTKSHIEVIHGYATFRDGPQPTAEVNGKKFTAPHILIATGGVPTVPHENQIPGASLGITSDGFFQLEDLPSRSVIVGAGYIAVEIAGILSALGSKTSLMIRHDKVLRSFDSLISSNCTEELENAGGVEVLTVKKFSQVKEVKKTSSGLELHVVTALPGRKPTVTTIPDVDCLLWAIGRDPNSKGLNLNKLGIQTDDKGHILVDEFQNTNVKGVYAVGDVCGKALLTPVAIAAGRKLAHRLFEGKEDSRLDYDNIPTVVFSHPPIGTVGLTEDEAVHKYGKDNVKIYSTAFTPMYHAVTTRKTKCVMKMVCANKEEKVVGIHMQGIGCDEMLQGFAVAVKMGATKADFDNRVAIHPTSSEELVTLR

HL-60 [11] = assay: Induction of apoptosis in human HL60 cells 1 uM incubated for 24 hrs by Annexin V/propidium iodide staining based flow cytometry; assay type: functional
HL-60 [12] = assay: Induction of apoptosis in human HL60 cells 3 uM incubated for 24 hrs by Annexin V/propidium iodide staining based flow cytometry; assay type: functional
L02 = assay: Cytotoxicity in human L02 cells assessed as reduction in cell viability at 1 to 5 uM incubated for 48 hrs by MTT assay; assay type: cell-based; conditions: l02, 48 h
HL-60 [13] = assay: Induction of ROS production in human HL60 cells at 1 to 5 uM incubated for 1 hr by DCFH-DA staining based fluorescence assay; assay type: functional, cell-based
A549 = assay: Cytotoxicity in human A549 cells assessed as reduction in cell viability at 1 to 5 uM incubated for 48 hrs by MTT assay; assay type: functional, cell-based
HepG2 = assay: Cytotoxicity in human HepG2 cells assessed as reduction in cell viability at 1 to 5 uM incubated for 48 hrs by MTT assay; assay type: functional, cell-based
HeLa [14] = assay: Cytotoxicity in human HeLa cells transfected with non targetting vector assessed as reduction in cell viability at 1 to 5 uM incubated for 48 hrs by MTT assay; assay type: functional, cell-based
HL-60 [15] = assay: Reduction in GSH/GSSG ratio in human HL60 cells at 1 to 5 uM incubated for 24 hrs by enzymatic recycling method; assay type: functional, cell-based
HeLa [16] = assay: Cytotoxicity in human HeLa cells transfected with shTrxR1 assessed as reduction in cell viability at 1 to 5 uM incubated for 48 hrs by MTT assay; assay type: functional, cell-based
HL-60 [17] = assay: Induction of apoptosis in human HL60 cells 0.5 to 5 uM incubated for 24 hrs in presence of NAC by Annexin V/propidium iodide staining based flow cytometry; assay type: functional, cell-based
[18] = biological target: T3, Thioredoxin reductase 1, cytoplasmic (Homo sapiens, UniProt Q16881); assay: Inhibition of TrxR1 in human HL60 cells incubated for 24 hrs by endpoint insulin reduction assay; assay type: cell-based
T3 sequence (Q16881 whole entry): T1 sequence (whole entry)

[19] = test system: T4, Thioredoxin reductase 1, cytoplasmic (Rattus norvegicus), O89049 [U498C]; assay: Inhibition of NADPH-reduced rat TrxR1 U498C mutant assessed as suppression of DTNB reduction at 1 to 5 uM incubated for 1 hr
T4 sequence (whole entry): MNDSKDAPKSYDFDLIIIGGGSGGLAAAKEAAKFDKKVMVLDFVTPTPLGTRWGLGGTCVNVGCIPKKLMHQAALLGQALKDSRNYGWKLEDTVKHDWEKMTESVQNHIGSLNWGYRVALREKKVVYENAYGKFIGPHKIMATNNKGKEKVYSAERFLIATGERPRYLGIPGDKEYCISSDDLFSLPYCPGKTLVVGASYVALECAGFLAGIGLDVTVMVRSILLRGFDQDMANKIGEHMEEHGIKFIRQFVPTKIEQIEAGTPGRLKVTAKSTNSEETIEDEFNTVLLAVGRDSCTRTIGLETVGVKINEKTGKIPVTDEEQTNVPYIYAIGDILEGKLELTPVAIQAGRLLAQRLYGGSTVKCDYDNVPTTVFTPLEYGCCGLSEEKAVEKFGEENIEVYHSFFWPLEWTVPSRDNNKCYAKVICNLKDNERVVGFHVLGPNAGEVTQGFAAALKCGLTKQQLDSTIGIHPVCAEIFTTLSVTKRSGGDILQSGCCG

HL-60 [20] = assay: Effect on TrxR1 protein expression in human HL60 cells at 1 to 5 uM incubated for 24 hrs by Western blot; assay type: ADME, cell-based; conditions: hl-60, 24 h
HL-60 [21] = assay: Induction of apoptosis in human HL60 cells 0.5 uM incubated for 24 hrs by Annexin V/propidium iodide staining based flow cytometry; assay type: functional
HL-60 [22] = assay: Reduction in intracellular thiols in human HL60 cells at 1 to 5 uM incubated for 24 hrs by DTNB titration method; assay type: functional, cell-based
HL-60 [23] = assay: Potentiation of H2O2-induced cytotoxicity in human HL60 cells assessed as induction of cell death at 1 uM incubated for 24 hrs by MTT assay (reference value: 4%); assay type: functional
[24] = biological target: T5, Thioredoxin reductase 1, cytoplasmic (Rattus norvegicus) (UniProt O89049); assay: Irreversible inhibition of NADPH-reduced rat TrxR1 assessed as suppression of DTNB reduction incubated for 1 hr followed by compound removal from incubation mixture by column desalting
T5 sequence (whole entry): T4 sequence (whole entry) with C498U

HL-60 [25] = assay: Cytotoxicity in human HL60 cells assessed as reduction in cell viability incubated for 72 hrs by MTT assay; assay type: functional, cell-based; conditions: HL-60, 72 h
HL-60 [26] = assay: Cytotoxicity in human HL60 cells assessed as induction of cell death at 1 uM incubated for 24 hrs by MTT assay; assay type: functional
HL-60 [27] = assay: Induction of ROS production in human HL60 cells at 1 to 5 uM incubated for 1 hr by DHE staining based fluorescence assay; assay type: functional, cell-based
HL-60 [28] = assay: Cytotoxicity in human HL60 cells assessed as reduction in cell viability incubated for 48 hrs by trypan blue dye exclusion assay; assay type: functional, cell-based; conditions: HL-60, 48 h
HL-60 [29] = assay: Induction of apoptosis in human HL60 cells assessed as increase in caspase-3 activity at 5 uM incubated for 24 hrs using Ac-DEVD-pNA substrate by colorimetric assay; assay type: functional, cell-based
HL-60 [30] = assay: Cytotoxicity in human HL60 cells assessed as cell viability at 1 to 5 uM incubated for 48 hrs after 24 hrs pre-treatment with 50 uM BSO before compound addition by MTT assay; assay type: functional, cell-based
HL-60 [31] = assay: Induction of apoptosis in human HL60 cells assessed as increase in caspase-3 activity at 1 to 3 uM incubated for 24 hrs using Ac-DEVD-pNA substrate by colorimetric assay; assay type: functional, cell-based
[32] = biological target: T5, Thioredoxin reductase 1, cytoplasmic (Rattus norvegicus); assay: (§1) Inhibition of NADPH-reduced rat TrxR1 assessed as suppression of DTNB reduction incubated for 1 hr
[33] = biological target: T6, Thioredoxin reductase 1, cytoplasmic (Rattus norvegicus, UniProt O89049); assay: as §1
T6 sequence (O89049 whole entry): T4 sequence (whole entry) with C498U

HL-60 [34] = assay: Induction of apoptosis in human HL60 cells 5 uM incubated for 24 hrs by Annexin V/propidium iodide staining based flow cytometry; assay type: functional
HL-60 [35] = assay: Potentiation of H2O2-induced cytotoxicity in human HL60 cells assessed as induction of cell death at 3 uM incubated for 24 hrs by MTT assay; assay type: functional, cell-based
HL-60 [36] = assay: Cytotoxicity in human HL60 cells assessed as reduction in cell viability incubated for 48 hrs by MTT assay; assay type: functional, cell-based; conditions: HL-60, 48 h
HeLa [37] = assay: Cytotoxicity in human HeLa cells assessed as reduction in cell viability at 1 to 5 uM incubated for 48 hrs by MTT assay; assay type: functional, cell-based

O=C1C=C(N2CCOCC2)C(=O)c2c(O)ccc(O)c21
viability at 20 µM (HL-60 [1]): 50.1%

O=C1C=CC(=O)c2c(Cl)ccc(O)c21
viability at 20 µM (HL-60 [1]): 23.1%

CCCCCCCCNC1=CC(=O)c2c(O)ccc(O)c2C1=O
viability at 20 µM (HL-60 [1]): 61.1%

CCCCNC1=CC(=O)c2c(O)ccc(O)c2C1=O
viability at 20 µM (HL-60 [1]): 59.2%

O=C1C=C(N2CCCC2)C(=O)c2c(O)ccc(O)c21
viability at 20 µM (HL-60 [1]): 97.2%

CNC1=CC(=O)c2c(O)ccc(O)c2C1=O
viability at 20 µM (HL-60 [1]): 63%

O=C1C=C(N2CCCCC2)C(=O)c2c(O)ccc(O)c21
viability at 20 µM (HL-60 [1]): 54.9%

CC1=CC(=O)c2c(O)ccc(O)c2C1=O
inhibition [2]: Dose-dependent effect
Activity (HL-60 [3]): Active
Activity (HL-60 [4]): inactive
Activity (HL-60 [5]): Active
Activity (HL-60 [6]): Active
Activity (HEK-293T [7]): Non-Toxic
Activity (HEK-293T [8]): Active
Activity (HEK-293T [9]): inactive
inhibition [10]: inactive
Activity (HL-60 [11]): 23%
Activity (HL-60 [12]): 42%
Activity (L02): Non-Toxic
Activity (HL-60 [13]): Active
Activity (A549): Active
Activity (HepG2): Active
Activity (HeLa [14]): Active
Activity (HL-60 [15]): Dose-dependent effect
Activity (HeLa [16]): Active
Activity (HL-60 [17]): inactive
IC50 [18]: 2400 nM
inhibition [19]: inactive
Activity (HL-60 [20]): Non-Toxic
Activity (HL-60 [21]): 10%
Activity (HL-60 [22]): Active
Activity (HL-60 [23]): >43%
inhibition [24]: Active
IC50 (HL-60 [25]): 640 nM
Activity (HL-60 [26]): 27%
Activity (HL-60 [27]): Dose-dependent effect
IC50 (HL-60 [28]): 860 nM
viability at 20 µM (HL-60 [1]): 0%
Activity (HL-60 [29]): inactive
Activity (HL-60 [30]): Active
Activity (HL-60 [31]): Active
inhibition [32]: Dose-dependent effect
IC50 [33]: 700 nM
Activity (HL-60 [34]): 56%
Activity (HL-60 [35]): Active
IC50 (HL-60 [36]): 720 nM
Activity (HeLa [37]): Active
